Measurements from US7563910B2, “Heterocyclic cannabinoid receptor antagonists” (Hoffmann-La Roche Inc., priority 2004, dated 2009).

Columns and labels:
[1] = wild-type versus CB1 receptor knockout mice; cited from earlier work
[2] = 10 and 20 mg daily, compared to placebo; cited from earlier work
[3] = target: T1, human cannabis CB1 receptor (Homo sapiens, UniProt P21554); assay: Affinity for cannabinoid CB1 receptors, [3H]-CP-55,940 radioligand binding on HEK cell membranes; details: affinity for the CB1 receptor
T1 construct: expressed in transfected cells; host or cells: human embryonic kidney (HEK) cells, transient, Semliki Forest Virus system; membrane preparation
Experimental: The affinity of the compounds of the invention for cannabinoid CB1 receptors was determined using membrane preparations of human embryonic kidney (HEK) cells in which the human cannabis CB1 receptor is transiently transfected using the Semliki Forest Virus system in conjunction with [3H]-CP-55,940 as radioligand. After incubation of a freshly prepared cell membrane preparation with the [3H]-ligand, with or without addition of compounds of the invention, separation of bound and free ligand was performed by filtration over glassfiber filters. Radioactivity on the filter was measured by liquid scintillation counting. The affinity of the compounds of the invention for cannabinoid CB2 receptors was determined using membrane preparations of human embryonic kidney (HEK) cells in which the human cannabis CB2 receptor is transiently transfected using the Semliki Forest virus system in conjunction with [3H]-CP-55,940 as radioligand. After incubation of a freshly prepared cell membrane preparation with the [3H]-ligand, with or without addition of compounds of the invention, separation of bound of bound and free ligand was performed by filtration over glassfiber filters. Radioactivity on the filter was measured by liquid scintillation counting. The cannabinoid CB1 antagonistic activity of compounds of the invention was determined by functional studies using CHO cells in which human cannabinoid CB1 receptors are stably expressed (see M. Rinaldi-Carmona et. al., J. Pharmacol. Exp. Ther. 278 (1996) 871). The stable expression of the human cannabinoid receptor in cell systems was first described in Nature 1990, 346, 561-564 (CB1) and Nature 1993, 365, 61-65 (CB2) respectively. Adenylyl cyclase was stimulated using forskolin and measured by quantifying the amount of accumulated cyclic AMP. […]
The compounds of formula (I) show an excellent affinity for the CB1 receptor, determined with the experimental conditions described in Devane et. al. Mol. Pharmacol. 34 (1988) 605-613. […]

T1 sequence (P21554 whole entry): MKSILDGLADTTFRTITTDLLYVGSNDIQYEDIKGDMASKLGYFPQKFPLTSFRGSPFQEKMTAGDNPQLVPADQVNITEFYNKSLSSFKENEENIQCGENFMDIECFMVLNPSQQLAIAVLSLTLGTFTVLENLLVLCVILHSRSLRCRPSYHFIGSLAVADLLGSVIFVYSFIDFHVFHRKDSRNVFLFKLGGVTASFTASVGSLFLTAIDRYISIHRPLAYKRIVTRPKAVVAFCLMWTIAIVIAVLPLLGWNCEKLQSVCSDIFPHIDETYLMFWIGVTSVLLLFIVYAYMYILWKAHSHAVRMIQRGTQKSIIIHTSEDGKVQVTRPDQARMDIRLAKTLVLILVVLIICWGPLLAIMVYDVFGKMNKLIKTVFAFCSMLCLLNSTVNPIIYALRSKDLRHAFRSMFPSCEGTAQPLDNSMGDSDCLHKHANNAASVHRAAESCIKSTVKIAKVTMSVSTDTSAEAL

Row | SMILES | food intake [1] | body weight [2] | IC50 [3] [nM]
1 | Cc1c(C(=O)NN2CCCCC2)nn(-c2ccc(Cl)cc2Cl)c1-c1ccc(Cl)cc1 [SR 141716] | reduces food intake in wild-type but not knockout mice | significantly reduced body weight | –
2 | Cc1c(C(=O)NN2CCCCC2)nc(-c2ccc(OC(F)(F)F)cc2)n1CC1CCCCO1 (centres unmarked) [Example 1, 5-Methyl-1-(tetrahydro-pyran-2-ylmethyl)-2-(4-trifluoromethoxy-phenyl)-1H-imidazole-4-carboxylic acid piperidin-1-ylamide] | – | – | 120
3 | Cc1c(C(=O)NC2CCCCC2)cc(-c2cc(C(F)(F)F)ccc2C(F)(F)F)n1C[C@H]1CCCO1 [Example 23, 5-(2,5-Bis-trifluoromethyl-phenyl)-2-methyl-1-[(R)-1-(tetrahydro-furan-2-yl)methyl]-1H-pyrrole-3-carboxylic acid cyclohexylamide] | – | – | 8
4 | Cc1c(C(=O)NC2CCCCC2)cc(-c2ccccc2OC(F)(F)F)n1CC1COCCO1 (racemic) [Example 10, (rac) 1-[1,4]Dioxan-2-ylmethyl-2-methyl-5-(2-trifluoromethoxy-phenyl)-1H-pyrrole-3-carboxylic acid cyclohexylamide] | – | – | 76
